System: MK801 induced hyperactivity in female NMRI mice
Assay: MK801 induced hyperactivity
Assay type: in vivo
Settings: test compound subcutaneously 30 minutes before test start at 3, 10, 30 mg/kg, MK801 0.2 mg/kg ip
Experimental: Female NMRI mice (Taconic M&B, P.O. box 1079, DK-8680 Ry, Denmark) are kept in a ventilated closed rack (Scantainer, Scanbur Ltd., Denmark) at constant temperature (21° C.) and humidity (60-70%) with a 7:00 a.m light/7:00 p.m dark cycle. Food (altromin rat pellets) and water were available ad libitum.
Experiments were conducted during daytime in the light phase. The animals were habituated to the experimental room approximately 24 hours before start of the experiments.
MK801 induced hyperactivity was measured in automated activity frames (TSE Home Cage Activity Monitoring System, MoTil, TSE technical & scientific equipment GmbH, Germany) equipped with infrared photobeam emitters and sensors. MK801 was administered in a dose of 0.2 mg/kg ip immediately before test start.
Test compound was pretreated subcutaneously 30 minutes before test start at the following doses 3, 10, 30 mg/kg in a dose volume of 10 ml/kg.

Compound | Minimal Effective Dose (M.E.D) that significantly reduces MK801 induced hyperactivity
O=C(CCCCN1CCC(c2ccccc2)CC1)Nc1ccc2ncccc2c1 [Compound A4, 5-(4-Phenyl-piperidin-1-yl)-pentanoic acid quinolin-6-ylamide] | 10 mg/kg
COc1ccccc1N1CCN(CCCCC(=O)Nc2ccc3ncccc3c2)CC1 [Compound A3, 5-[4-(2-Methoxy-phenyl)-piperazin-1-yl]-pentanoic acid quinolin-6-ylamide] | 10 mg/kg

From US20110085978A1, “NOVEL QUINOLINYLAMIDE DERIVATIVES USEFUL AS MODULATORS OF DOPAMINE AND SEROTONIN RECEPTORS” (NeuroSearch A/S, priority 2008, published 2011)
